This is an account of results in US5071955A, “Octopeptide exhibiting antimypertensive activity” (Nippon Suisan Kaisha, Ltd., priority 1988, dated 1991).

The structures appear in SMILES notation. Peptide text beside a SMILES is read from it.

For orientation: IC50 means the concentration needed to halve the response being measured.

Series [1] concerns ICR mice. The series is described as follows: Intravenous LD50 in ICR mice. The series is classed as in vivo. The following applies: in physiological saline, 6 week old male and female ICR mice, 2 week observation. On the procedure:
(§1) The peptide of formula (I) prepared in Example 2 was dissolved in physiological saline.
(§2) Various concentrations of the peptide in physiological saline were intravenously administered to test animal groups each consisting of 6 week old male (10/group) or female (10/group) ICR mice, or 6 week old male (10/group) or female (10/group) Wistar rats. The LD50 value was determined after a 2 week observation period.

Series [2] addresses Angiotensin I converting enzyme (ACE) (Homo sapiens, UniProt P12821). The series is described as follows: Angiotensin I converting enzyme (ACE) inhibitory activity, method of Cushman and Cheung. The note with it: Hip-His-Leu substrate, pH 8.3, 37° C., 30 min. The series is classed as biochemical. On the procedure: A prescribed amount of sample was added to a solution composed of 1-10 mU ACE, 2.5 mM Hip-His-Leu substrate (produced by Peptide Research Institute), 100 mM potassium-phosphate buffer (pH 8.3), and 300 mM NaCl. 0.25 ml of this mixture was incubated at 37° C. for 30 min, and the enzymatic reaction was stopped by adding 0.25 ml of 1N HCl. 1.5 ml of ethylacetate was then added and the mixture was vigorously shaken for 10 second, following which the hippuric acid produced was extracted. […] A blank (ODsbl) was made by adding 1N HCl prior to incubation, and the difference in absorbance, ODs-ODsbl, was determined. […] ACE inhibitory activity was calculated using the following equation: [formula]

For series [3], the system named is Wistar rats. As to the kind of experiment: Intravenous LD50 in Wistar rats. The series is classed as in vivo. The following applies: in physiological saline, 6 week old male and female Wistar rats, 2 week observation. On the procedure: as §1, §2

Chain of Angiotensin I converting enzyme (ACE) (P12821 30-1306, species assumed): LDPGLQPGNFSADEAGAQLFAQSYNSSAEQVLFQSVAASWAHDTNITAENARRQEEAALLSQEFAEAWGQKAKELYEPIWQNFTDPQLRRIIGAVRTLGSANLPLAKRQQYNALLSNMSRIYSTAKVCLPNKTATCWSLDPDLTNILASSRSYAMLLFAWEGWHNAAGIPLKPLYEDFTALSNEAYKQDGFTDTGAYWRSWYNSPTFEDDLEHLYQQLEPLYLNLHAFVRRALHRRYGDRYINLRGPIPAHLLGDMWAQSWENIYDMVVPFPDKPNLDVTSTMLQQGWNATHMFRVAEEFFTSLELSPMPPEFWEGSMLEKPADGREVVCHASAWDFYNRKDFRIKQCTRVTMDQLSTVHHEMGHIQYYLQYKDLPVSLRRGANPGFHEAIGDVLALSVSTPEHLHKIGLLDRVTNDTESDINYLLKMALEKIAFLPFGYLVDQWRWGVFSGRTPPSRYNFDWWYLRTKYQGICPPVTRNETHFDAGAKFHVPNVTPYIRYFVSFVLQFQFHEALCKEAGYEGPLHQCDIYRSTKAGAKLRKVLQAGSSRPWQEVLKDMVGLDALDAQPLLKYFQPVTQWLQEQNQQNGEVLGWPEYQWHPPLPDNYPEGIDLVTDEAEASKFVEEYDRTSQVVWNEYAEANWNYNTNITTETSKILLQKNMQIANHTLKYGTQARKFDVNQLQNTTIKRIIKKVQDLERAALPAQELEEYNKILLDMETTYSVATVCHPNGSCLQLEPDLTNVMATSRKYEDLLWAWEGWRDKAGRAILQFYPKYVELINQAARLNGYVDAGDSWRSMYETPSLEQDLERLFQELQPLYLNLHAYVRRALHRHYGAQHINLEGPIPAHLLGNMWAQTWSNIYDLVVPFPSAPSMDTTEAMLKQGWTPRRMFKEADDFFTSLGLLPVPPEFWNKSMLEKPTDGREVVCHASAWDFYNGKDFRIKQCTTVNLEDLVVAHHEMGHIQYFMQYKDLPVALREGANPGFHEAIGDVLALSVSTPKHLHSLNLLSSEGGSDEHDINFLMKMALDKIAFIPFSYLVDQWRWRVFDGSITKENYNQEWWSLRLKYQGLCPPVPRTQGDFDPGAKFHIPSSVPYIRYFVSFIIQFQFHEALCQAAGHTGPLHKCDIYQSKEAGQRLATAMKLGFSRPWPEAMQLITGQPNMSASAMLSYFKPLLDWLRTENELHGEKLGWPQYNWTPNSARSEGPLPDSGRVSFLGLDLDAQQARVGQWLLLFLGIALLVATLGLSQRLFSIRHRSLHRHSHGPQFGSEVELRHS

Consider `CC[C@H](C)[C@H](NC(=O)[C@H](Cc1c[nH]cn1)NC(=O)[C@@H](NC(=O)[C@@H]1CCCN1)[C@@H](C)O)C(=O)N[C@@H](CCCCN)C(=O)N[C@@H](Cc1c[nH]c2ccccc12)C(=O)NCC(=O)N[C@@H](CC(=O)O)C(=O)O` [Peptide (I), Pro-Thr-His-Ile-Lys-Trp-Gly-Asp] (H-PTHIKWGD-OH), for which the LD50 entry in series [1] and in series [3] was “greater than 10 mg/kg” each time. Also, the IC50 in series [2] (sample origin: Fish) amounted to 700 nM; in series [2] (sample origin: Peptide Synthesis), 600 nM.
The compound `CC(C)C[C@H](NC(=O)[C@@H](NC(=O)[C@@H](N)CC(C)C)C(C)C)C(=O)O` [Tripeptide, Leu-Val-Leu, reference compound] (H-Leu-Val-Leu-OH) returned an IC50 in series [2] (comparison samples of Table 1) of 1700 nM.
